The results in this text go back to patent US12433959B2, “Injectable hydrogels for controlled release of immunomodulatory compounds” (THE BOARD OF TRUSTEES OF THE LELAND STANFORD JUNIOR …, priority 2018, dated 2025).

The nature of this data set: Hydrodynamic radius (MALS) and diffusivity of cargo in PBS. The format is physicochemical. As to conditions: for diffusivity value, D: corresponding to RH. How it is done: Values closer to 1 indicate more similar diffusivities of the OVA and Poly(I:C) (n=3). […] Values closer to 1 indicate that cargo diffusivity is limited by self-diffusion of the hydrogel (n=3).
OVA's hydrodynamic radius (RH) is 3.2 nm, corresponding to a diffusivity value, D, of 76.6 μm^2/s. Poly(I:C)'s was measured to be much larger, with an RH of 34.2 nm, using multi-angle light scattering (MALS), corresponding to a D value of 7.2 μm^2/s. This difference in size results in OVA having an over 10 times greater diffusivity than Poly(I:C) in PBS (FIG. 3C). […] The measured diffusivities for all experiments can be found in FIG. 16. With a standard injection volume in rodents (100 μL) and the release characteristics of PNP hydrogels, these OVA diffusivities correlate to release timeframes of approximately 2 and 3 weeks, respectively. Further, the ratio of OVA to Poly(I:C) diffusivities (DOVA/DPoly(I:C)) was 3.3 in the 1:5 gel, and only 1.4 in the 2:10 gel (FIG. 3C). When comparing the diffusivity of OVA to the self-diffusion of the hydrogel matrix (DOVA/DGel), which was determined by tracking the diffusivity of HPMC-C12 within the hydrogel, the ratio was 6.5 in the 1:5 gel, but only 4.7 in the 2:10 gel, while the ratio of Poly(I:C) to the hydrogel self-diffusion (DPoly(I:C)/DGel) was around 2 for the 1:5 gel and 3.5 for the 2:10 gel (FIG. 3D). […] The diffusion of OVA, however, is more limited by hydrogel self-diffusion in the 2:10 gel and appears to be small enough to diffuse more freely in the 1:5 gel (FIG. 3B). Accordingly, the diffusivity of both OVA and Poly(I:C) is restricted by the self-diffusion of the hydrogel network in the 2:10 gel and are thus similar to one another, enabling sustained co-delivery of the two cargo, despite their large difference in physicochemical properties.

Turning to “Polyinosinic-polycytidylic acid [Poly(I:C)]”, the “hydrodynamic radius (RH)” value is 34.2 nm and the “size of Poly(I:C) relative to OVA” value is 10 times larger. Also, the “diffusivity value, D” value (in PBS) turned out to be 7.2 μm^2/s.

B1: ovalbumin (protein, UniProt P01012 2-386, looked up)
Ovalbumin: GSIGAASMEFCFDVFKELKVHHANENIFYCPIAIMSALAMVYLGAKDSTRTQINKVVRFDKLPGFGDSIEAQCGTSVNVHSSLRDILNQITKPNDVYSFSLASRLYAEERYPILPEYLQCVKELYRGGLEPINFQTAADQARELINSWVESQTNGIIRNVLQPSSVDSQTAMVLVNAIVFKGLWEKAFKDEDTQAMPFRVTEQESKPVQMMYQIGLFRVASMASEKMKILELPFASGTMSMLVLLPDEVSGLEQLESIINFEKLTEWTSSNVMEERKIKVYLPRMKMEEKYNLTSVLMAMGITDVFSSSANLSGISSAESLKISQAVHAAHAEINEAGREVVGSAEAGVDAASVSEEFRADHPFLFCIKHIATNAVLFFGRCVSP
notes: commonly used model antigen
Regarding B1, the “hydrodynamic radius (RH)” value worked out at 3.2 nm. Also, under “in PBS”, the “diffusivity of OVA relative to Poly(I:C)” value is “over 10 times greater” and the “diffusivity value, D” value is given as 76.6 μm^2/s.
